Literature values, collected in patent US7842720B2, “Anticancer and antiprotozoal dihydroartemisinene and dihydroartemisitene dimers with desirable chemical functionalities” (Elsohly Laboratories, Incorporated, priority 2004, dated 2010).

Legend:
[1] = system: chloroquine-sensitive and chloroquine-resistant strains of Plasmodium falciparum
malaria = conditions: comparison among artemisinin derivatives

Row | Compound | anti-malarial activity [1] | anti-malarial activity relative to comparator (malaria)
1 | C[C@@H]1CC[C@H]2[C@@H](C)C(=O)O[C@@H]3O[C@@]4(C)CC[C@@H]1[C@]32OO4 [artemisinin] | anti-malarial activity | 
2 | C[C@H]1[C@H](OC(=O)CCC(=O)[O-])O[C@@H]2O[C@@]3(C)CC[C@H]4[C@H](C)CC[C@@H]1[C@@]24OO3.[Na+] [sodium artesunate] |  | more activity
